Measurements from patent publication US11147272B2, “Pyridone compounds and agricultural and horticultural fungicides comprising the same as active ingredients” (MITSUI CHEMICALS AGRO, INC., priority 2017, dated 2021).

Experiments:
Plasmopara viticola = assay: Test Example G: Downy mildew on vine; details: 7 to 10 days after inoculation
Alternaia brassicicola = assay: Test Example C: Alternaria sooty spot on cabbage; format: in vivo
Description: Seeds of a test plant (cabbage variety: Shikidori) were planted and cultivated until the cotyledons extended.
<Control Value> Control value=100{1−(n/3)}

[1] = test system: Colletotrichum orbiculare; assay: Test Example H: Anthracnose on cucumber; details: 6 to 10 days after inoculation
[2] = test system: Blumeria graminis f. sp. hordei; assay: Test Example D: Powdery mildew on barley
Phytophthora infestans = assay: whole plant or invertebrate; format: in vivo
Puccinia recondita = assay: Test Example E: Brown rust on wheat; format: in vivo
Botrytis cinerea = assay: Test Example B: Gray mold on tomato
Magnaporthe grisea = assay: whole plant or invertebrate; format: in vivo
[3] = Downy mildew on vine, 250 ppm spray
[4] = Alternaria sooty spot on cabbage, control value class
[5] = Anthracnose on cucumber, 250 ppm spray
[6] = Powdery mildew on barley, control value class
[7] = Late blight on tomato, control value class
[8] = Brown rust on wheat, control value class
[9] = Gray mold on tomato, control value class
[10] = Blast on rice, control value class
[11] = 250 ppm drug solution sprayed (2.5 ml/pot), grape Neomuscat
[12] = 250 ppm drug solution sprayed on test plant
[13] = 250 ppm drug solution sprayed (2.5 ml/pot), cucumber Sagami Hanjiro

Compound	Test G control value (Plasmopara viticola; [3])	Test C control value (Alternaia brassicicola; [4])	Test H control value [1, 5]	Test D control value [2, 6]	Test F control value (Phytophthora infestans; [7])	Test E control value (Puccinia recondita; [8])	Test B control value (Botrytis cinerea; [9])	Test A control value (Magnaporthe grisea; [10])	Test G control value (Plasmopara viticola; [11])	Test C control value (Alternaia brassicicola; [12])	Test H control value [1, 13]	Test D control value [2, 12]	Test F control value (Phytophthora infestans; [12])	Test E control value (Puccinia recondita; [12])	Test B control value (Botrytis cinerea; [12])	Test A control value (Magnaporthe grisea; [12])
CCCc1cc(Br)c(=O)n(CC)c1-c1ccc(F)cc1Br [compound 369]	H (more than 50% control value)	H (more than 50% control value)	H (more than 50% control value)	H (more than 50% control value)	H (more than 50% control value)	H (more than 50% control value)	H (more than 50% control value)	H (more than 50% control value)								
CCCc1ccc(=O)n(CC)c1-c1ccc(OC)cc1Br [compound 370]	H (more than 50% control value)	H (more than 50% control value)	H (more than 50% control value)	H (more than 50% control value)	H (more than 50% control value)	H (more than 50% control value)	H (more than 50% control value)	L (50% or less control value)								
CCCC1=C(c2c(F)cc(F)cc2F)N(CC)C(=O)CC1 [compound 371]	L (50% or less control value)	L (50% or less control value)	L (50% or less control value)	L (50% or less control value)	L (50% or less control value)	L (50% or less control value)	H (more than 50% control value)	L (50% or less control value)								
CCCc1ccc(=O)n(CC)c1-c1c(F)cc(F)cc1F [compound 372]	H (more than 50% control value)	H (more than 50% control value)	H (more than 50% control value)	H (more than 50% control value)	L (50% or less control value)	H (more than 50% control value)	H (more than 50% control value)	L (50% or less control value)								
CCC1=C(c2c(F)cc(F)cc2F)N(CC)C(=O)CC1 [compound 373]									L (50% or less control value)	H (more than 50% control value)	H (more than 50% control value)	L (50% or less control value)	L (50% or less control value)	L (50% or less control value)	L (50% or less control value)	L (50% or less control value)
CCc1cc(Cl)c(=O)n(C)c1-c1ccc(OC)cc1C [compound 374]									L (50% or less control value)	H (more than 50% control value)	L (50% or less control value)	H (more than 50% control value)	L (50% or less control value)	H (more than 50% control value)	H (more than 50% control value)	L (50% or less control value)
